“And” between values parts separate entries of the source, which are not always exact repeats. Equal entries are not always repeated.

Assay [1] has as its target T1, recombinant full length LRRK2 (Homo sapiens, UniProt Q5S007).
T1 construct: A BacMam virus expressing full length recombinant LRRK2 was purchased from Invitrogen; host or cells: SH-SY5Y human neuroblastoma cells transduced with BacMam LRRK2 virus (MOI 50)
In words: Recombinant cellular LRRK2 AlphaScreen assay. The class given is cell-based. Particulars: LRRK2 Ser935 phosphorylation, SH-SY5Y cells over-expressing recombinant full length LRRK2; read-out: pIC50 in the recombinant cellular LRRK2 AlphaScreen assay (converted). From the text:
b. Recombinant Cellular LRRK2 AlphaScreen Assay
To determine the activity of compounds against LRRK2 kinase activity in cells, the observed LRRK2 kinase-dependent modulation of LRRK2 Ser 935 phosphorylation (Dzamko et al., 2010, Biochem. J. 430: 405-413) was utilized to develop a quantitative 384 well plate-based immunoassay of LRRK2 Ser935 phosphorylation in the human neuroblastoma cell line SH-SY5Y, engineered to over-express recombinant full length LRRK2 protein. A BacMam virus expressing full length recombinant LRRK2 was purchased from Invitrogen and amplified by inoculation of SF-9 cells at MOI 0.3 for 4-5 days in Sf-900 III SFM medium supplemented with 3% fetal bovine serum. Infected cell cultures were then centrifuged at 2000 g for 20 minutes, viral supernatant titer determined by anti-gp64 plaque assay and stored at 4° C. Affinity-purified anti-phospho LRRK2 Ser935 sheep polyclonal antibody (Dzamko et al., 2010, Biochem. J. 430: 405-413) was biotinylated by standard methods (PerkinElmer). Anti-LRRK2 rabbit polyclonal antibody was purchased from Novus Biologicals. AlphaScreen Protein A IgG Kit (including acceptor and donor beads) was purchased from Perkin Elmer. SH-SY5Y cells were grown in DMEM/F12 medium with 10% dialysed fetal bovine serum and harvested by treatment with 0.5% trypsin-EDTA for 5 minutes at 37° C. followed by centrifugation at 1000 rpm for 4 minutes. The cell pellet was resuspended in Opti-MEM reduced serum media (Invitrogen) at 200,000 cells/ml and mixed with the BacMam LRRK2 virus at MOI=50. 50 μl cell solutions were then dispensed to each well of a 384-well plate and incubated at 37° C., 5% CO2 for 24 hours. Serial dilutions of test compounds were prepared in Opti-MEM reduced serum media (Invitrogen) and 5.6 ul transferred from compound plate to cell assay plate to achieve a top final assay concentration of 10 uM. DMSO was used in certain wells as controls. Cells were incubated at 37° C., 5% CO2 for 60 minutes. The medium was then removed and cells lysed by addition of 20 ul cell lysis buffer (Cell Signaling Technology) and incubation at 4° C. for 20 minutes. 10 ul of antibody/acceptor bead mix [(1/1000 biotinylated-pS935 LRRK2 antibody, 1/1000 total-LRRK2 antibody, 1/100 Acceptor beads in AlphaScreen detection buffer (25 mM Hepes (pH 7.4), 0.5% Triton X-100, 1 mg/ml Dextran 500 and 0.1% BSA)] was then added to each well and plates incubated for 2 hours at ambient temperature in the dark. 10 μl of donor beads solution (1/33.3 donor beads in AlphaScreen detection buffer) was then added to each well. Following incubation for a further 2 hours at ambient temperature in the dark, plates were read on an EnVision™ plate reader at emission 520-620 nm with excitation 680 nm. Dose response curve data was based on sigmoidal dose-response model.
(Bead proximity is the source of the signal in Alpha formats.)

Assay [2] deals with T2, Full length G2019 human LRRK2 (Homo sapiens, UniProt Q5S007).
T2 construct: purified recombinant Full length Flag-LRRK2 in assay buffer; made in house; host or cells: HEK293 6E cells transduced with BacMam virus (virus generated in Sf9 cells)
T2 sequence (Q5S007 with tags, fused parts or gaps R50H): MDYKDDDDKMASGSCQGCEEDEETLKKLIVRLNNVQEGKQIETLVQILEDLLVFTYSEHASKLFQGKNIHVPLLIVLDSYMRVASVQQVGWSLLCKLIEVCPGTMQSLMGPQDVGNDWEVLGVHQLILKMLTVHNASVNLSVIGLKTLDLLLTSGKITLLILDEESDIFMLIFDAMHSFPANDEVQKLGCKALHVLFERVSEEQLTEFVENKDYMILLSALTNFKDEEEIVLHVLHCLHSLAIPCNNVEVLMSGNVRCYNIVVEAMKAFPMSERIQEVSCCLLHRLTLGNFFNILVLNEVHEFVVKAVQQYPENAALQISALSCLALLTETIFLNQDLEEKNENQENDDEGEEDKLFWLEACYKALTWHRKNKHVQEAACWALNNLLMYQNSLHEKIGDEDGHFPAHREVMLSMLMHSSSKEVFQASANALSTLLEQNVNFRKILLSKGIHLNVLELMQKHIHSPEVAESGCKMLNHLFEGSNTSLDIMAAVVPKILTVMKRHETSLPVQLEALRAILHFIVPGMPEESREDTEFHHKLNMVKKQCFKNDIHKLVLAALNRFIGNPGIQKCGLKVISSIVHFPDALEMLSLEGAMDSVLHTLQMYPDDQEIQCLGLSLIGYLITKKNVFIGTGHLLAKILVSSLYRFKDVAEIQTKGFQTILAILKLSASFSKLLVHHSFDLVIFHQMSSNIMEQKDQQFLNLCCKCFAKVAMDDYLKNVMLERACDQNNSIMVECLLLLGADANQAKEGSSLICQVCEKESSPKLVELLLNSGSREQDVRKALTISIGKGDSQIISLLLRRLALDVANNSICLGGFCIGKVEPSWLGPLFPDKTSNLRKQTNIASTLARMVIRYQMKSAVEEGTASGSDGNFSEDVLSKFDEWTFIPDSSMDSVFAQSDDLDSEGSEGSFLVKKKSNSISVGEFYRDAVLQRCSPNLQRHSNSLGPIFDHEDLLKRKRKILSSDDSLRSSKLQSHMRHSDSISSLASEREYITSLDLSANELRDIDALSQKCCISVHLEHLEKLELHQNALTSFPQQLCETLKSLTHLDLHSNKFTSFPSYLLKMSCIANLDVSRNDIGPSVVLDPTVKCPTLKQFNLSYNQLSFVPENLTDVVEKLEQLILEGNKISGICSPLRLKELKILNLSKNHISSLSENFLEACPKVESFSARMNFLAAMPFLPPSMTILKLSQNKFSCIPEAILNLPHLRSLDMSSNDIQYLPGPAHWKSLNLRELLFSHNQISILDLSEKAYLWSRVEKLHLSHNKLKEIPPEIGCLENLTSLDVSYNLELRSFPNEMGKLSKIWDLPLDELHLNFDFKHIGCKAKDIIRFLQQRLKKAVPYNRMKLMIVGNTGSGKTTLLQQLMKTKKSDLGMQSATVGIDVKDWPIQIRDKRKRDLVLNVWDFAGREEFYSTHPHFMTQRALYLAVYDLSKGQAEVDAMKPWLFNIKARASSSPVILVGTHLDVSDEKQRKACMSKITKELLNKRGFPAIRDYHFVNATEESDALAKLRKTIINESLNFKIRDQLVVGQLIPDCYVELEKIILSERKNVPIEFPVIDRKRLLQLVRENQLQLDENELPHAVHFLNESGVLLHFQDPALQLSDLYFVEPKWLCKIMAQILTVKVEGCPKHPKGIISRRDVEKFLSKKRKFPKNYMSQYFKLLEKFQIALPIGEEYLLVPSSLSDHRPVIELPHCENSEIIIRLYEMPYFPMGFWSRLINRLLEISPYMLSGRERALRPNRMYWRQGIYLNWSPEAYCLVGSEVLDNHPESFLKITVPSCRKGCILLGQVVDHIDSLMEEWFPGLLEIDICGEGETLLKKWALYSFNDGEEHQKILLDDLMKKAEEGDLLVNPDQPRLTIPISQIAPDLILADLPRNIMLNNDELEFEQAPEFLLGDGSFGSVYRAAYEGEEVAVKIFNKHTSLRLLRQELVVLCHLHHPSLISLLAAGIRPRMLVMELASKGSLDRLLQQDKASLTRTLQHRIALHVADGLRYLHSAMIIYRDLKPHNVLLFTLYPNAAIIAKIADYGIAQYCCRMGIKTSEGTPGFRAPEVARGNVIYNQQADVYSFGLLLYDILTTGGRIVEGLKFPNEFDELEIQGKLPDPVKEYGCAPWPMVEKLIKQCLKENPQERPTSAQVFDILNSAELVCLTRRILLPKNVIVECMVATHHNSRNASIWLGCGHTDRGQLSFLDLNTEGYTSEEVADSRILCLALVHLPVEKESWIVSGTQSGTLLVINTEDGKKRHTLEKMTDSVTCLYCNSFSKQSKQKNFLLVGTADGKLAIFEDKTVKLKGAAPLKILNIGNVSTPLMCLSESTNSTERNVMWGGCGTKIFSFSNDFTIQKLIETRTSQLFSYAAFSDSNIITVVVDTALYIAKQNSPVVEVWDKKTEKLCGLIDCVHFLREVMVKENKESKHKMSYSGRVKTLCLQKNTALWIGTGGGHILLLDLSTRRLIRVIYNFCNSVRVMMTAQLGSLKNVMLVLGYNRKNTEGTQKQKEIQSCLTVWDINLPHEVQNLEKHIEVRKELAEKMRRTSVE
As to the kind of experiment: Full length G2019 human LRRK2 Inhibition Mass Spectrometry assay. The format is biochemical. The conditions noted are these: LRRKtide substrate, RapidFire mass spectrometry; read-out: pIC50 in the Full length G2019 human LRRK2 Inhibition Mass Spectrometry assay (converted). The procedure: a. Full Length G2019 Human LRRK2 Inhibition Mass Spectrometry Assay
This assay for Leucine Rich Repeat Kinase 2 (LRRK2) inhibition is based on the direct measurement of the peptide ‘LRRKtide’ (LRRKtide: RLGRDKYKT*LRQIRQ and “*” refers to the site of phosphorylation.) and phosphorylated ‘LRRKtide’ using a high throughput RapidFire mass spectrometry assay. Inhibitors are compounds that reduce the conversion of LRRKtide to phospho-LRRKtide.
HEK293 6E cells were incubated in a 37° C. incubator with a humidified atmosphere of 5% CO2 on an orbital shaker rotating at 110 rpm. On the day of transduction, the cell viability was higher than 98% and the cell density was in the range of 1×10^6˜1.5×10^6 cells/ml. HEK293 6E cells were centrifuged at 1,000 rpm for 10 min, and then the cells were resuspended in fresh Freestyle 293 expression medium (Invitrogen:12338) with 0.1% F-68 (Invitrogen:24040-032) but without antibiotics (G418) at density of 1×10^6 cells/ml. BacMam virus with Flag-hu LRRK2 (genotypically normal) gene was centrifuged at 40,000 g for 2 hours, then resuspended in fresh Freestyle 293 expression medium. The resuspended virus was added into the cells in at MOI of 10. The cells were incubated in a 37° C. incubator with a humidified atmosphere of 5% CO2 in air on an orbital shaker rotating at 110 rpm. Cultures were harvested at approximately 48 hours post-transduction by centrifugation at 4,000 rpm for 20 min and pellets were frozen for purification.
The suspended cells were lysed by sonication on ice for 30 min (2 secs on/4 sec off, 20% amplitude), and centrifuged at 10,000 rpm for 30 minutes at 4° C. The supernatant was incubated with 1 mL per litre of cell culture of anti-Flag magnetic beads (Sigma-Aldrich: M8823) at 4° C. for 3 hours, then the beads were washed by 5 mL (5 column volume) binding buffer (50 mM Tris pH7.5@ 4C, 500 mM NaCl, 0.5 mM EDTA, 0.1% TritonX-100, 10% glycerol, freshly add 2 mM DTT) for three times. The Flag tagged LRRK2 proteins were eluted by Elution buffer (50 mM Tris pH7.5@ 4C, 500 mM NaCl, 0.5 mM EDTA, 0.1% TritonX-100, 10% glycerol, freshly add 2 mM DTT, 250 ug/ml Flag peptide (Sigma-Aldrich:F3290)) at 4° C. for 2 hours. Flag peptide was removed by Zeba Spin Desalting Columns, 7K MWCO (Thermo-Fisher: 89893) and the buffer of eluted LRRK2 proteins was exchanged into Storage Buffer (50 mM Tris pH7.5@4C, 150 mM NaCl, 0.5 mM EDTA, 0.02% Triton X-100, 2 mM DTT and 50% Glycerol) using Amicon Ultra Centrifugal Filter Units (100 kD) (Merck: UFC910096). Fractions containing LRRK2 proteins were pooled, aliquoted and stored at −80° C. Protein concentration was determined by Bradford protein assay, and protein purity was analyzed by NuPAG Novex 4-12% Bis-Tris Protein Gels (Invitrogen: NP0322BOX).
• 1) A 10 mM test compound was dissolved in 100% DMSO and serially diluted 1 in 4. 100 nL of this dilution series was then added to a 384 well, v bottom polypropylene plate, excluding columns 6 and 18. 100 nL of DMSO was added to columns 6 and 18 as controls wells. Assay dilution gave a top final assay concentration of test compound of 100 μM • 2) 50 μl of 1% formic acid in laboratory grade water was added to column 18 using a multidrop combi dispenser to act as a pre stopped assay control. • 3) 5 μl of ‘enzyme solution’ containing 50 nM of purified recombinant Full length Flag-LRRK2 in assay buffer (50 mM Hepes (pH 7.2), 10 mM MgCl2, 150 mM NaCl, 5% glycerol, 0.0025% triton X-100 and 1 mM DTT) was added to all wells using a multidrop combi dispenser, giving a final assay concentration of 25 nM LRRK2 enzyme. […] Test plates were then incubated for 30 minutes at room temperature. • 4) 5 μl ‘substrate solution’ containing 50 uM LRRKtide peptide substrate and 4 mM ATP was added to all wells of the plate using a multidrop combi dispenser giving a final assay concentration of 25 uM LRRKtide and 2 mM ATP. Test plates were then incubated for 1 hour at room temperature. […]

T1 sequence (Q5S007 whole entry): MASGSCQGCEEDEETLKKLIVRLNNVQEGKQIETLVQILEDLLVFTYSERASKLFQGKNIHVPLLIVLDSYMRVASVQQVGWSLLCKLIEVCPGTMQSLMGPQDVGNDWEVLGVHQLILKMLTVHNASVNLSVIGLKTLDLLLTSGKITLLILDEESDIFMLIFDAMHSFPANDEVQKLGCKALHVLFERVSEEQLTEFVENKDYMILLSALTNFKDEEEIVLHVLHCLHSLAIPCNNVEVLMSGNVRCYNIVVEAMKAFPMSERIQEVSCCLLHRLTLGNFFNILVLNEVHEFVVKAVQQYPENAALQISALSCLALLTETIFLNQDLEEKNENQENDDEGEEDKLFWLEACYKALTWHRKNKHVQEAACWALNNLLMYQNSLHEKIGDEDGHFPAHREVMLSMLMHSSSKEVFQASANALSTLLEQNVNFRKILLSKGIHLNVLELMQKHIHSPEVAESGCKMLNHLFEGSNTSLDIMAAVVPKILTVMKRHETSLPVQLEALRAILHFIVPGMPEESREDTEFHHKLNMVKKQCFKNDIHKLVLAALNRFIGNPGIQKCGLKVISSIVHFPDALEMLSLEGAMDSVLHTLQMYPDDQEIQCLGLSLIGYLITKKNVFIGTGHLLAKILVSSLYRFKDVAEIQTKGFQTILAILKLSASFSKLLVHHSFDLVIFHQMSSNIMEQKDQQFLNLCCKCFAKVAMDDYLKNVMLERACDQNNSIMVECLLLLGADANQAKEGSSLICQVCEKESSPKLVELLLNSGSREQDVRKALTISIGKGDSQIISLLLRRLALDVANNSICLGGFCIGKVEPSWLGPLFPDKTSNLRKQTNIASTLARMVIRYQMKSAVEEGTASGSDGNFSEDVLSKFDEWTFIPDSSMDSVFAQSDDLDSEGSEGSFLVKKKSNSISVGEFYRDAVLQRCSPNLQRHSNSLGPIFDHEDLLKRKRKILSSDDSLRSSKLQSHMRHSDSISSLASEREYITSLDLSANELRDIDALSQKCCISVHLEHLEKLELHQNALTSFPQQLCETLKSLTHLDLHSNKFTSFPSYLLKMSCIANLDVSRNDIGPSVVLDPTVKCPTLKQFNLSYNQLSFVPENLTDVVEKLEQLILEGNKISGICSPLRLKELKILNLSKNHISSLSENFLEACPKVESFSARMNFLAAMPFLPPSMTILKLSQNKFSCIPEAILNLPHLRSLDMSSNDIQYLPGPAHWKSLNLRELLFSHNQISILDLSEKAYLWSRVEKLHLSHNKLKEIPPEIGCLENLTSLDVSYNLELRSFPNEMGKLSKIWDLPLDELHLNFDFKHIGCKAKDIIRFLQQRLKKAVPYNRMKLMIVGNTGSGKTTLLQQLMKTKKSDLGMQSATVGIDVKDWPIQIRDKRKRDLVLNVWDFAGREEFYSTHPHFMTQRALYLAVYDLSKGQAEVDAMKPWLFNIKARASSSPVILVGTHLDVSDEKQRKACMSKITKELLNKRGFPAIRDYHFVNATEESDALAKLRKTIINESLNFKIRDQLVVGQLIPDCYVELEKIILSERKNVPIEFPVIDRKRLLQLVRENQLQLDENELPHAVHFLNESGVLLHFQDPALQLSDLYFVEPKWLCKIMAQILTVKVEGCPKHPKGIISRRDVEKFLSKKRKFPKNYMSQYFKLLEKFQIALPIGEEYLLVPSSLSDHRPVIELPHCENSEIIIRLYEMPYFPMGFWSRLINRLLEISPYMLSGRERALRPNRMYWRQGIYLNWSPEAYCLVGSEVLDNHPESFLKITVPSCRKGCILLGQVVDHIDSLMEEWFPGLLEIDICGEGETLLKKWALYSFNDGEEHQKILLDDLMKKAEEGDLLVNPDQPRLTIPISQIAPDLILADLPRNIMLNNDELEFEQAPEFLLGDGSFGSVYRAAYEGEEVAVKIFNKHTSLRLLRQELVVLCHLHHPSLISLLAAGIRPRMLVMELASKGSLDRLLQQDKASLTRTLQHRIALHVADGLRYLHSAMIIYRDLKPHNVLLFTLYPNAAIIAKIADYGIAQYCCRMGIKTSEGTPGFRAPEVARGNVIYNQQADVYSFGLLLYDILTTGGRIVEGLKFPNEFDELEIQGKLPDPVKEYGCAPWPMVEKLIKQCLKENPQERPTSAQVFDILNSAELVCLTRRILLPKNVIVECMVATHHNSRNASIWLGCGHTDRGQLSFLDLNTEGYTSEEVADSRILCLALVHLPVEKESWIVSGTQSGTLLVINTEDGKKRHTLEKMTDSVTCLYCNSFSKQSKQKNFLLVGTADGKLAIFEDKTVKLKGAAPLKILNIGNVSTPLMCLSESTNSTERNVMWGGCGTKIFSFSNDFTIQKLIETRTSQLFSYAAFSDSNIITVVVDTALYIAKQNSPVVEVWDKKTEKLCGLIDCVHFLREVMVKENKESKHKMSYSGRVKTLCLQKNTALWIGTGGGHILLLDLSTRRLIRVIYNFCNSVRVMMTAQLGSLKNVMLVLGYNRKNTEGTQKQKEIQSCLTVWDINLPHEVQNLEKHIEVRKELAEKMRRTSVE

Turning to `COc1nc(N2CCO[C@@H](CO)C2)cc(-n2ncc3cc(C)c(C4CCN(C5CCOC5)CC4F)cc32)n1` (single isomer, unassigned) [Example E117], the IC50 in assay [1] was at most 10 nM; in assay [2], at most 1000 nM.

For the compound `Cc1nc(N2CCO[C@@H](CO)C2)cc(-n2ncc3cc(C)c(C4CCN([C@H]5CCOC5)CC4)cc32)n1` (single isomer, unassigned) [Example E4], the IC50 in assay [1] is 100 nM; in assay [2], 25.1 nM.

As to `COc1nc(N2CCOCC2)cc(-n2ncc3cc(C)c(C4CCN(C5CCOC5)CC4F)cc32)n1` (single isomer, unassigned) [Example E126, 4-(6-(6-(3-fluoro-1-(tetrahydrofuran-3-yl)-piperidin-4-yl)-5-methyl-1H-indazol-1-yl)-2-methoxypyrimidin-4-yl)morpholine], the IC50 in assay [1] and in assay [2] was at most 100 nM in each case.

With `[2H]c1nn(-c2cc(N3CCO[C@@H](CO)C3)nc(C)n2)c2cc(C3CCN([C@@H]4CCOC4)CC3)c(C)cc12` [Example E94, ((R)-4-(6-(3-deuterium-5-methyl-6-(1-((R)-tetrahydrofuran-3-yl)piperidin-4-yl)-1H-indazol-1-yl)-2-methylpyrimidin-4-yl)morpholin-2-yl)methanol], the values for the IC50 in assay [1] and in assay [2] were at most 1000 nM and at most 100 nM, respectively.

As to `[2H]C1(N2CCC(c3cc4c(cnn4-c4cc(N5CCO[C@H](CO)C5)nc(C)n4)cc3C)CC2)CCOC1` (single isomer, unassigned) [Example E34], the IC50 in assay [1] was ≤ 100 nM and 100 nM; in assay [2], ≤ 1000 nM and 63.1 nM.

For `Cc1nc(N[C@H]2C[C@@H](O)C2)cc(-n2ncc3cc(C)c(C4CCN(C5CCOC5)CC4)cc32)n1` (single isomer, unassigned) [Example E134, Cis-3-((2-methyl-6-(5-methyl-6-(1-(tetrahydrofuran-3-yl)piperidin-4-yl)-1H-indazol-1-yl)pyrimidin-4-yl)amino)cyclobutanol], the IC50 in assay [1] and in assay [2] was at most 100 nM each time.

On to `Cc1nc(N2CCOC(C(C)O)C2)cc(-n2ncc3cc(C)c(C4CCN(C5CCOC5)CC4)cc32)n1` (single isomer, unassigned) [Example E140, 1-(4-(2-methyl-6-(5-methyl-6-(1-(tetrahydrofuran-3-yl)piperidin-4-yl)-1H-indazol-1-yl)pyrimidin-4-yl)morpholin-2-yl)ethanol], for which the IC50 is at most 1000 nM in assay [1] and at most 100 nM in assay [2].

For `Cc1nc(N2CCOC(C(C)O)C2)cc(-n2ncc3cc(C)c(C4CCN(C5CCOC5)CC4)cc32)n1` (single isomer, unassigned) [Example E135, 1-(4-(2-methyl-6-(5-methyl-6-(1-(tetrahydrofuran-3-yl)piperidin-4-yl)-1H-indazol-1-yl)pyrimidin-4-yl)morpholin-2-yl)ethanol], the IC50 in assay [1] and in assay [2] was at most 100 nM each time.

`COc1nc(N2CCOCC2)cc(-n2ncc3cc(C)c(C4CCN(C5CCOC5)CC4F)cc32)n1` (single isomer, unassigned) [Example E116, Cis-4-(6-(6-(3-fluoro-1-(tetrahydrofuran-3-yl)-piperidin-4-yl)-5-methyl-1H-indazol-1-yl)-2-methoxypyrimidin-4-yl)morpholine]: the IC50 in assay [1] and in assay [2] was at most 100 nM throughout.

Take `Cc1nc(N2CCO[C@H](CO)C2)cc(-n2ncc3cc(C)c(C4CCN(C5CCOC5)CC4F)cc32)n1` (single isomer, unassigned) [Example E106]: the IC50 in assay [1] was at most 1000 nM; in assay [2], at most 100 nM.

For `Cc1nc(N[C@H]2C[C@@H](O)C2)cc(-n2ncc3cc(C)c(C4CCN(C5CCOC5)CC4)cc32)n1` (single isomer, unassigned) [Example E133, Cis-3-((2-methyl-6-(5-methyl-6-(1-(tetrahydrofuran-3-yl)piperidin-4-yl)-1H-indazol-1-yl)pyrimidin-4-yl)amino)cyclobutanol], the IC50 in assay [1] and in assay [2] was at most 1000 nM throughout.

For `COc1nc(N2CCO[C@@H](CO)C2)cc(-n2ncc3cc(C)c(C4CCN(C5CCOC5)CC4F)cc32)n1` (single isomer, unassigned) [Example E119], the IC50 in assay [1] and in assay [2] was at most 100 nM in each case.

With `Cc1nc(N2CCOC(C(C)O)C2)cc(-n2ncc3cc(C)c(C4CCN(C5CCOC5)CC4)cc32)n1` (single isomer, unassigned) [Example E137, 1-(4-(2-methyl-6-(5-methyl-6-(1-(tetrahydrofuran-3-yl)piperidin-4-yl)-1H-indazol-1-yl)pyrimidin-4-yl)morpholin-2-yl)ethanol], the values for the IC50 in assay [1] and in assay [2] were at most 1000 nM and at most 100 nM, respectively.

`COc1nc(N2CCO[C@H](CO)C2)cc(-n2ncc3cc(C)c(C4CCN(C5CCOC5)CC4F)cc32)n1` (single isomer, unassigned) [Example E124]: the IC50 in assay [1] and in assay [2] was at most 100 nM in each case.
